{
  "source": "PubChem BioAssay AID1845210",
  "about": "(Molecular Pharmacology Branch, DTP, NCI, 2023)",
  "system": "NCI-H226 complex tumor spheroids, viability",
  "assay": "Anticancer human tumor NCI-H226 cell line growth inhibition;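 also: spheroids exposed to compound for 7 days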;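 as to viability, T/C: 100% = DMSO vehicle control viability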",
  "details": "for IC50: curve of first compound; for viability, T/C: stronger effect = lower value",
  "method_in_brief": "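Single agents and combinations were tested on spheroids built from tumor cells plus HUVEC and hMSC, at half-log dilutions starting at or near clinical Cmax, else 10 microM; final DMSO 0.25% (v/v).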",
  "data": [
    {"smiles": "CC(C)n1c(=O)n(C)c2cnc3cc(F)c(-c4ccc(OCCCN5CCCCC5)nc4)cc3c21", "note": "+ Cn1nnc2c(C(N)=O)ncn2c1=O", "values": [
      {"measurement": "IC50", "setting": "second compound 1 µM", "result": 5.83, "unit": "µM"},
      {"measurement": "IC50", "setting": "second compound 3.16 µM", "result": 5.92, "unit": "µM"},
      {"measurement": "IC50", "setting": "second compound 10 µM", "result": 6, "unit": "µM"},
      {"measurement": "IC50", "setting": "second compound 31.6 µM", "result": 5.72, "unit": "µM"},
      {"measurement": "IC50", "setting": "second compound 100 µM", "result": "> 10", "unit": "µM"},
      {"measurement": "viability, T/C", "setting": "second compound 1 µM, first compound 0.0316 µM", "result": 111, "unit": "%"},
      {"measurement": "viability, T/C", "setting": "second compound 1 µM, first compound 0.1 µM", "result": 115, "unit": "%"},
      {"measurement": "viability, T/C", "setting": "second compound 1 µM, first compound 0.316 µM", "result": 120, "unit": "%"},
      {"measurement": "viability, T/C", "setting": "second compound 1 µM, first compound 1 µM", "result": 118, "unit": "%"},
      {"measurement": "viability, T/C", "setting": "second compound 1 µM, first compound 3.16 µM", "result": 102, "unit": "%"},
      {"measurement": "viability, T/C", "setting": "second compound 1 µM, first compound 10 µM", "result": 4.4, "unit": "%"},
      {"measurement": "viability, T/C", "setting": "second compound 3.16 µM, first compound 0.0316 µM", "result": 112, "unit": "%"},
      {"measurement": "viability, T/C", "setting": "second compound 3.16 µM, first compound 0.1 µM", "result": 113, "unit": "%"},
      {"measurement": "viability, T/C", "setting": "second compound 3.16 µM, first compound 0.316 µM", "result": 114, "unit": "%"},
      {"measurement": "viability, T/C", "setting": "second compound 3.16 µM, first compound 1 µM", "result": 102, "unit": "%"},
      {"measurement": "viability, T/C", "setting": "second compound 3.16 µM, first compound 3.16 µM", "result": 104, "unit": "%"},
      {"measurement": "viability, T/C", "setting": "second compound 3.16 µM, first compound 10 µM", "result": 4.91, "unit": "%"},
      {"measurement": "viability, T/C", "setting": "second compound 10 µM, first compound 0.0316 µM", "result": 114, "unit": "%"},
      {"measurement": "viability, T/C", "setting": "second compound 10 µM, first compound 0.1 µM", "result": 119, "unit": "%"},
      {"measurement": "viability, T/C", "setting": "second compound 10 µM, first compound 0.316 µM", "result": 109, "unit": "%"},
      {"measurement": "viability, T/C", "setting": "second compound 10 µM, first compound 1 µM", "result": 114, "unit": "%"},
      {"measurement": "viability, T/C", "setting": "second compound 10 µM, first compound 3.16 µM", "result": 109, "unit": "%"},
      {"measurement": "viability, T/C", "setting": "second compound 10 µM, first compound 10 µM", "result": 3.29, "unit": "%"},
      {"measurement": "viability, T/C", "setting": "second compound 31.6 µM, first compound 0.0316 µM", "result": 117, "unit": "%"},
      {"measurement": "viability, T/C", "setting": "second compound 31.6 µM, first compound 0.1 µM", "result": 108, "unit": "%"},
      {"measurement": "viability, T/C", "setting": "second compound 31.6 µM, first compound 0.316 µM", "result": 110, "unit": "%"},
      {"measurement": "viability, T/C", "setting": "second compound 31.6 µM, first compound 1 µM", "result": 99.4, "unit": "%"},
      {"measurement": "viability, T/C", "setting": "second compound 31.6 µM, first compound 3.16 µM", "result": 99.9, "unit": "%"},
      {"measurement": "viability, T/C", "setting": "second compound 31.6 µM, first compound 10 µM", "result": 3.07, "unit": "%"},
      {"measurement": "viability, T/C", "setting": "second compound 100 µM, first compound 0.0316 µM", "result": 122, "unit": "%"},
      {"measurement": "viability, T/C", "setting": "second compound 100 µM, first compound 0.1 µM", "result": 115, "unit": "%"},
      {"measurement": "viability, T/C", "setting": "second compound 100 µM, first compound 0.316 µM", "result": 115, "unit": "%"},
      {"measurement": "viability, T/C", "setting": "second compound 100 µM, first compound 1 µM", "result": 117, "unit": "%"},
      {"measurement": "viability, T/C", "setting": "second compound 100 µM, first compound 3.16 µM", "result": 105, "unit": "%"},
      {"measurement": "viability, T/C", "setting": "second compound 100 µM, first compound 10 µM", "result": 64, "unit": "%"}
    ]}
  ]
}
